Converted amounts (≈) assume the structure as drawn.
Experiments:
[1] = biological target: T1, MMP2 (Homo sapiens, UniProt P08253); assay: MMP2 inhibition (SensoLyte 520 Generic MMP Activity Kit); assay type: biochemical; settings: for inhibition at 100 µM: read-out: MMP2 (% inhibition at 100 μM), 100 μM
T1 construct: purchased AnaSpec (Fremont, CA, USA)
T1 sequence (P08253 110-660): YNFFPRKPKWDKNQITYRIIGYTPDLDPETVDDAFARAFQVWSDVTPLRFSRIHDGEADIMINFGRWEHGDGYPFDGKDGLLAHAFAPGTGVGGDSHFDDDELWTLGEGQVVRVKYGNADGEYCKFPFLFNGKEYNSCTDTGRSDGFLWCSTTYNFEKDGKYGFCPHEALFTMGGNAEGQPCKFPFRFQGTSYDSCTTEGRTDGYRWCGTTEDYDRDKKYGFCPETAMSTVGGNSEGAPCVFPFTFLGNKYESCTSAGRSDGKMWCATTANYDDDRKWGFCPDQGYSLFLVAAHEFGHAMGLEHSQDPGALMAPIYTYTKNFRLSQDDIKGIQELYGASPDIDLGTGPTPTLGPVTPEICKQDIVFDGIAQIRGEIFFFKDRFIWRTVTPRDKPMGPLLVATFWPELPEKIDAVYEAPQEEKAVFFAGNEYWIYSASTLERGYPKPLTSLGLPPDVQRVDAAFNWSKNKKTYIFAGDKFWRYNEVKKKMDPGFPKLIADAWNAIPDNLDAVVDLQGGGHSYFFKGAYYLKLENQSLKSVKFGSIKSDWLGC
Method: (§1) Since LpxC and LasB are zinc-dependent enzymes, we investigated potential off-target activity of the three frontrunners on mammalian zinc-dependent enzymes. Our panel comprised three representative matrix-metalloproteases (MMP1–3) and tumor necrosis factor-α converting enzyme (TACE, also known as ADAM17) (Table 6).
(§2) Purification of LasB from P. aeruginosa PA14 supernatant and the subsequent performance of the FRET-based in vitro inhibition assay was performed as described previously.[66] The TACE (ADAM-17) inhibitor screening kit was purchased from Sigma-Aldrich (Saint Louis, MO). MMPs 1–3 along with the SensoLyte 520 Generic MMP Activity Kit Fluorimetric were purchased from AnaSpec (Fremont, CA, USA). The assays were performed according to the guidelines of the respective manufacturer. Fluorescence signals were measured using a CLARIOstar plate reader (BMG Labtech, Ortenberg, Germany).

[2] = metabolic stability in mouse liver S9 fractions; assay type: in vitro ADME; settings: pooled liver S9 fraction, 1 μM compound, 1 mg/mL S9, phase I and II cofactors; for half-life at 1 μM: read-out: metabolic stability in mouse liver S9 fractions t1/2
Method: For the evaluation of combined phase I and phase II metabolic stability, the compound (1 μM) was incubated with 1 mg/mL pooled mouse liver S9 fraction (Xenotech, Kansas City, USA), 2 mM nicotinamide adenine dinucleotide phosphate hydrogen (NADPH), 1 mM UDPGA, 10 mM MgCl2, 5 mM glutathione (GSH), and 0.1 mM 3′-phosphoadenosine 5′-phosphosulfate (PAPS) at 37 °C for 120 min. The metabolic stability of testosterone, verapamil, and ketoconazole were determined in parallel to confirm the enzymatic activity of mouse S9 fractions. The incubation was stopped after defined time points by precipitation of aliquots of S9 enzymes with 2 volumes of cold acetonitrile containing internal standard (150 nM diphenhydramine). Samples were stored on ice until the end of the incubation and the precipitated protein was removed by centrifugation (15 min, 4 °C, 4000g). Concentration of the remaining test compound at the different time points was analyzed by HPLC–MS/MS (TSQ Quantum Access Max, Thermo Fisher, Dreieich, Germany) and used to determine half-life (t1/2).

[3] = stability in mouse plasma; assay type: in vitro ADME; settings: 1 μM compound, pooled CD-1 mouse plasma; for half-life at 1 μM: CD-1, mouse, pooled plasma, read-out: mouse plasma stability t1/2
Method: To determine stability in mouse plasma, the compound (1 μM) was incubated with pooled CD-1 mouse plasma (Neo Biotech, Nanterre, France). Samples were taken at defined time points by mixing aliquots with 4 volumes of acetonitrile containing internal standard (125 nM diphenhydramine). Samples were stored on ice until the end of the incubation, and the precipitated protein was removed by centrifugation (15 min, 4 °C, 4000g, 2 centrifugation steps). Concentration of the remaining test compound at the different time points was analyzed by HPLC–MS/MS (TSQ Quantum Access MAX, Thermo Fisher, Dreieich, Germany). The plasma stability of procain, propantheline, and diltiazem were determined in parallel to confirm enzymatic activity.

[4] = MTT-based cytotoxicity assay; assay type: cell-based; settings: human, HepG2 cells
Text: An MTT-based assay was employed to evaluate the viability of HepG2 cells after challenge with selected inhibitors and performed as described previously.[77]

[5] = biological target: T2, MMP3 (Homo sapiens, UniProt P08254); assay: MMP3 inhibition (SensoLyte 520 Generic MMP Activity Kit); assay type: biochemical; settings: read-out: MMP3 (% inhibition at 100 μM)
T2 construct: purchased AnaSpec (Fremont, CA, USA)
Method: as §1, §2

[6] = biological target: T3, MMP1 (Homo sapiens, UniProt P03956); assay: MMP1 inhibition (SensoLyte 520 Generic MMP Activity Kit); assay type: biochemical; settings: read-out: MMP1 (% inhibition at 100 μM)
T3 construct: purchased AnaSpec (Fremont, CA, USA)
T3 sequence (P03956 100-469): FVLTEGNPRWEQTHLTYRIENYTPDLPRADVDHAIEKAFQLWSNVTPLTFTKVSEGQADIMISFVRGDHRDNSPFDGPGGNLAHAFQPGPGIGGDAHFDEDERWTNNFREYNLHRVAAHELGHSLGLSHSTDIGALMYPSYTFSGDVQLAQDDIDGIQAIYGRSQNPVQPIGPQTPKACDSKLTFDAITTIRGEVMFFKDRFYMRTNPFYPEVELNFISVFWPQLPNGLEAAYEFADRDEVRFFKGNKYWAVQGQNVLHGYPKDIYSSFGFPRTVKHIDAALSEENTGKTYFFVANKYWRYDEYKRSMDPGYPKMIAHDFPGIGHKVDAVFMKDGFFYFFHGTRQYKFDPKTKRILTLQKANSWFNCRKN
Method: as §1, §2

[7] = plasma protein binding, human; assay type: in vitro ADME
Method: The microsomal metabolic stability assay as well as the plasma protein binding assay were conducted as described previously.[78]

[8] = kinetic turbidimetric solubility; assay type: physicochemical; settings: PBS with 1% DMSO, Kinetic solubility (1% DMSO/PBS)
Method: The desired compounds were sequentially diluted in DMSO in a 96-well plate. 1.5 μL from each well was transferred into another 96-well plate and mixed with 148.5 μL of PBS. Plates were shaken for 5 min at 600 rpm at room temperature, and the absorbance at 620 nm was measured. Absorbance values were normalized by blank subtraction and plotted using GraphPad Prism 8.4.2 (GraphPad Software, San Diego, CA, USA). Solubility (S) was determined based on the First X value of AUC function using a threshold of 0.005.

T2 sequence (P08254 100-477, species assumed): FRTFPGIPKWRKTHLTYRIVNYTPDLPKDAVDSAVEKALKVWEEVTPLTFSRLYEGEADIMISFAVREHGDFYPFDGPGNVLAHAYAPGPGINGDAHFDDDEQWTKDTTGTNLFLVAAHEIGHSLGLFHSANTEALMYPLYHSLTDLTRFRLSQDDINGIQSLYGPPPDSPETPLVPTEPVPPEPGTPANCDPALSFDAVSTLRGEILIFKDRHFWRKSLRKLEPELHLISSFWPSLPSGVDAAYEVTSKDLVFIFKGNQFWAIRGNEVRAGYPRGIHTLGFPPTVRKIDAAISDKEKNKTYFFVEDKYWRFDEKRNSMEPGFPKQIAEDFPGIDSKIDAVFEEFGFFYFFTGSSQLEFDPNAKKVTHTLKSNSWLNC

Row | SMILES | inhibition at 100 µM [1] [%] | microsomal CLint at 1 μM [2] [µL/min/mg] | half-life at 1 μM [2] [min] | half-life at 1 μM [3] [min] | IC50 [4] [µM] | inhibition at 100 µM [5] [%] | inhibition at 100 µM [6] [%] | fraction unbound [7] | solubility kinetic at 5 min [8] [µM] | MMP2 (% inhibition at 100 μM) ([1]; 100 μM) [%] | mouse plasma stability t1/2 [3] [min] | IC50 [1] [µM] | selectivity factor for MMP2 ([1]; MMP2 versus LpxC)
1 | O=C(NC[C@H](OCc1ccc(C#Cc2ccc(CN3CCOCC3)cc2)cc1)C(=O)NO)c1c[nH]c2ccccc12 [(S)-13h] | 15 ± 3 | ~45 | 15.5 ± 1 | 22.9 ± 4.8 | 15.1 ± 1.7 | < 10 | 15 ± 7 | 0.0175 | 53.5 ± 1.9 (≈ 29.6 µg/mL) | – | – | – | –
2 | O=C(NC[C@H](OCc1ccc(C#Cc2ccc(CN3CCOCC3)cc2)cc1)C(=O)NO)c1ccc2[nH]ccc2c1 [(S)-13j] | ~50 | 27.6 ± 2.7 | 25.5 ± 2.7 | 43.1 | 8.1 ± 1.4 | 16 ± 1 | < 10 | 0.0205 | 46 ± 11 (≈ 25.4 µg/mL) | 47 ± 3 | 43 ± 13 | – | –
3 | O=C(NC[C@H](OCc1ccc(C#Cc2ccc(CN3CCOCC3)cc2)cc1)C(=O)NO)c1cc[nH]n1 [(S)-13l] | 65 ± 4 | 10.9 ± 0.9 | > 60 | 24.2 ± 5 | 30.2 ± 1.9 | 19 ± 2 | 11 ± 6 | 0.0224 | ≥ 100 | – | – | 67 | 105
